Laboratory results reported in ChEMBL document CHEMBL4673372, “1,2,3-triazole-thiazole hybrids: Synthesis, in vitro antimicrobial activity and antibiofilm studies” (Bioorg Med Chem Lett, 2021).
pIC50: −log10 of the molar value. Values after ≈ are worked out from the molar mass of the structure shown.

Assays:
Candida albicans [1] = experiment: Inhibition of biofilm formation in Candida albicans MTCC 3017 incubated for 24 hrs by crystal violet staining based microtiter plate method; format: functional, organism-based
Pseudomonas aeruginosa [2] = experiment: Inhibition of biofilm formation in Pseudomonas aeruginosa MTCC 2453 incubated for 24 hrs by crystal violet staining based microtiter plate method; format: functional, organism-based
Escherichia coli [3] = experiment: Inhibition of biofilm formation in Escherichia coli MTCC 739 incubated for 24 hrs by crystal violet staining based microtiter plate method; format: functional, organism-based
Raoultella planticola [4] = experiment: Inhibition of biofilm formation in Klebsiella planticola MTCC 530 incubated for 24 hrs by crystal violet staining based microtiter plate method; format: functional, organism-based
Micrococcus luteus [5] = experiment: Inhibition of biofilm formation in Micrococcus luteus MTCC 2470 incubated for 24 hrs by crystal violet staining based microtiter plate method; format: functional, organism-based
Bacillus subtilis [6] = experiment: Inhibition of biofilm formation in Bacillus subtilis MTCC 121 incubated for 24 hrs by crystal violet staining based microtiter plate method; format: functional, organism-based
Staphylococcus aureus [7] = experiment: Inhibition of biofilm formation in Staphylococcus aureus MLS16 MTCC 2940 incubated for 24 hrs by crystal violet staining based microtiter plate method; format: functional, organism-based
Staphylococcus aureus [8] = experiment: Inhibition of biofilm formation in Staphylococcus aureus […] incubated for 24 hrs by crystal violet staining based microtiter plate method; format: functional, organism-based
Pseudomonas aeruginosa [9] = experiment: Antibacterial activity against Pseudomonas aeruginosa MTCC 2453 assessed as inhibition of bacterial growth by microtiter broth dilution method; format: functional
Escherichia coli [10] = experiment: Antibacterial activity against Escherichia coli MTCC 739 assessed as inhibition of bacterial growth by microtiter broth dilution method; format: functional
Raoultella planticola [11] = experiment: Antibacterial activity against Klebsiella planticola MTCC 530 assessed as inhibition of bacterial growth by microtiter broth dilution method; format: functional
Micrococcus luteus [12] = experiment: Antibacterial activity against Micrococcus luteus MTCC 2470 assessed as inhibition of bacterial growth by microtiter broth dilution method; format: functional
Bacillus subtilis [13] = experiment: Antibacterial activity against Bacillus subtilis MTCC 121 assessed as inhibition of bacterial growth by microtiter broth dilution method; format: functional
Staphylococcus aureus [14] = experiment: Antibacterial activity against Staphylococcus aureus MLS16 MTCC 2940 assessed as inhibition of bacterial growth by microtiter broth dilution method; format: functional
Staphylococcus aureus [15] = experiment: Antibacterial activity against Staphylococcus aureus MTCC 96 assessed as inhibition of bacterial growth by microtiter broth dilution method; format: functional
Pichia sporocuriosa = experiment: Antifungal activity against Issatchenkia hanoiensis MTCC 4755; format: functional
Pichia kudriavzevii = experiment: Antifungal activity against Candida krusei MTCC 3020; format: functional
Nakaseomyces glabratus = experiment: Antifungal activity against Candida glabrata MTCC 3019; format: functional
[Candida] aaseri = Antifungal activity against Candida aaseri MTCC 1962; format: functional; conditions: Yamadazyma aaseri
Candida parapsilosis = experiment: Antifungal activity against Candida parapsilosis MTCC 1745; format: functional; conditions: Lodderomyces parapsilosis
Candida albicans [16] = experiment: Antifungal activity against Candida albicans MTCC 4748; format: functional
Candida albicans [17] = experiment: Antifungal activity against Candida albicans MTCC 3958; format: functional
Candida albicans [18] = experiment: Antifungal activity against Candida albicans MTCC 3018; format: functional
Candida albicans [19] = experiment: Antifungal activity against Candida albicans MTCC 1637; format: functional
Candida albicans [20] = experiment: Antifungal activity against Candida albicans MTCC 854; format: functional
Candida albicans [21] = experiment: Fungicidal activity against Candida albicans MTCC 183; format: functional
Candida albicans [22] = experiment: Antifungal activity against Candida albicans MTCC 227; format: functional
Candida albicans [23] = experiment: Antifungal activity against Candida albicans MTCC 183; format: functional
[24] = Selectivity index, ratio of CC50 for human THP-1 cells to MIC for Staphylococcus aureus MTCC 96; format: toxicity
[25] = Cytotoxicity against human THP-1 cells; format: cell-based
THP-1 [26] = experiment: Cytotoxicity against human THP-1 cells assessed as cell damage at 200 uM by LDH assay; format: cell-based; conditions: thp-1, 200 µM
THP-1 [27] = experiment: Cytotoxicity against human THP-1 cells assessed as reduction in cell viability at 200 uM by MTT assay; format: cell-based; conditions: thp-1, 200 µM
Staphylococcus aureus [28] = experiment: Bactericidal activity against Staphylococcus aureus MTCC 96; format: functional
Bacillus subtilis [29] = experiment: Bactericidal activity against Bacillus subtilis MTCC 121; format: functional
Pseudomonas aeruginosa [30] = experiment: Bactericidal activity against Pseudomonas aeruginosa MTCC 2453; format: functional
Micrococcus luteus [31] = experiment: Bactericidal activity against Micrococcus luteus MTCC 2470; format: functional
Raoultella planticola [32] = experiment: Bactericidal activity against Klebsiella planticola MTCC 530; format: functional

Row | Structure (SMILES) | MIC (Pseudomonas aeruginosa [9]) | MIC (Escherichia coli [10]) | MIC (Micrococcus luteus [12]) | MIC (Bacillus subtilis [13]) | MIC (Staphylococcus aureus [14]) | MIC (Staphylococcus aureus [15]) | IC50 (Candida albicans [1]) | IC50 (Pseudomonas aeruginosa [2]) | IC50 (Escherichia coli [3]) | IC50 (Micrococcus luteus [5]) | IC50 (Staphylococcus aureus [7]) | MIC (Raoultella planticola [11]) | selectivity ratio [24] | CC50 [25] | Activity (THP-1 [26]) | Activity (THP-1 [27]) | MBC (Staphylococcus aureus [28]) | MBC (Bacillus subtilis [29]) | also measured
1 | COc1ccc(-n2cc(COc3ccc(/C=N/Nc4nc(-c5ccc(C)cc5)cs4)cc3)nn2)cc1 | > 252 µM | > 252 µM | > 252 µM | > 252 µM | > 252 µM | 15.7 µM (≈ 7.8 µg/mL) | – | – | – | – | – | > 252 µM | 2.57 | 40.3 µM | Toxic | Toxic | 31.4 µM (≈ 15.6 µg/mL) | – | –
2 | COc1ccc(-n2cc(COc3ccc(/C=N/Nc4nc(-c5ccc(-c6ccccc6)cc5)cs4)cc3)nn2)cc1 | > 224 µM | > 224 µM | > 224 µM | 13.9 µM (≈ 7.77 µg/mL) | > 224 µM | 13.9 µM (≈ 7.77 µg/mL) | – | – | – | – | – | > 224 µM | 2.58 | 35.8 µM | Toxic | Toxic | 27.9 µM (≈ 15.6 µg/mL) | 27.9 µM (≈ 15.6 µg/mL) | –
3 | COc1ccc(-n2cc(COc3ccc(/C=N/Nc4nc(-c5ccc([N+](=O)[O-])cc5)cs4)cc3)nn2)cc1 | 14.7 µM (≈ 7.76 µg/mL) | > 237 µM | 14.7 µM (≈ 7.76 µg/mL) | 14.7 µM (≈ 7.76 µg/mL) | > 237 µM | 14.7 µM (≈ 7.76 µg/mL) | – | – | – | – | – | > 237 µM | 2.58 | 37.9 µM | Toxic | Toxic | 29.5 µM (≈ 15.6 µg/mL) | 29.5 µM (≈ 15.6 µg/mL) | MBC (Pseudomonas aeruginosa [30]): 59.1 µM (≈ 31.2 µg/mL); MBC (Micrococcus luteus [31]): 29.5 µM (≈ 15.6 µg/mL)
4 | COc1ccc(-n2cc(COc3ccc(/C=N/Nc4nc(-c5ccc(Br)cc5)cs4)cc3)nn2)cc1 | 27.7 µM (≈ 15.6 µg/mL) | > 223 µM | 13.8 µM (≈ 7.75 µg/mL) | 13.8 µM (≈ 7.75 µg/mL) | > 223 µM | > 223 µM | – | – | – | – | – | > 223 µM | 0.16 | 35.6 µM | Toxic | Toxic | – | 55.5 µM (≈ 31.2 µg/mL) | MBC (Pseudomonas aeruginosa [30]): 111 µM (≈ 62.4 µg/mL); MBC (Micrococcus luteus [31]): 27.7 µM (≈ 15.6 µg/mL)
5 | COc1ccc(-n2cc(COc3ccc(/C=N/Nc4nc(-c5cc6cccc(Br)c6oc5=O)cs4)cc3)nn2)cc1 | > 199 µM | > 199 µM | > 199 µM | 6.1 µM (≈ 3.84 µg/mL) | > 199 µM | 6.1 µM (≈ 3.84 µg/mL) | Not Active | Not Active | Not Active | Not Active | Not Active | 6.1 µM (≈ 3.84 µg/mL) | – | – | – | – | 12.3 µM (≈ 7.74 µg/mL) | 12.3 µM (≈ 7.74 µg/mL) | pIC50 (Raoultella planticola [4]; Klebsiella planticola, MTCC 530, 24 h, read-out: IC50): 4.37; pIC50 (Bacillus subtilis [6]; Bacillus subtilis, MTCC 121, 24 h, read-out: IC50): 4.45; pIC50 (Staphylococcus aureus [8]; Staphylococcus aureus, MTCC 92, 24 h, read-out: IC50): 4.49; MBC (Raoultella planticola [32]): 12.3 µM (≈ 7.74 µg/mL)

Second part, led by results:

Row | MIC (Pseudomonas aeruginosa [9]) | MIC (Escherichia coli [10]) | MIC (Micrococcus luteus [12]) | MIC (Bacillus subtilis [13]) | MIC (Staphylococcus aureus [14]) | MIC (Staphylococcus aureus [15]) | Structure (SMILES) | IC50 (Candida albicans [1]) | IC50 (Pseudomonas aeruginosa [2]) | IC50 (Escherichia coli [3]) | IC50 (Micrococcus luteus [5]) | IC50 (Staphylococcus aureus [7]) | MIC (Raoultella planticola [11]) | selectivity ratio [24] | CC50 [25] | Activity (THP-1 [26]) | Activity (THP-1 [27]) | MBC (Staphylococcus aureus [28]) | MBC (Bacillus subtilis [29]) | also measured
6 | > 202 µM | > 202 µM | > 202 µM | > 202 µM | > 202 µM | > 202 µM | COc1ccc(-n2cc(COc3ccc(/C=N/Nc4nc(-c5cc6cc(Cl)cc(Cl)c6oc5=O)cs4)cc3)nn2)cc1 | Not Active | Not Active | Not Active | Not Active | Not Active | > 202 µM | – | – | – | – | – | – | IC50 (Raoultella planticola [4]): Not Active; IC50 (Bacillus subtilis [6]): Not Active; IC50 (Staphylococcus aureus [8]): Not Active
7 | > 195 µM | > 195 µM | > 195 µM | > 195 µM | > 195 µM | > 195 µM | COc1ccc(-n2cc(COc3ccc(/C=N/Nc4nc(-c5cc6cc([N+](=O)[O-])cc([N+](=O)[O-])c6oc5=O)cs4)cc3)nn2)cc1 | Not Active | Not Active | Not Active | Not Active | Not Active | > 195 µM | – | – | – | – | – | – | IC50 (Raoultella planticola [4]): Not Active; IC50 (Bacillus subtilis [6]): Not Active; IC50 (Staphylococcus aureus [8]): Not Active; MIC (Pichia sporocuriosa): > 195 µM; MIC (Pichia kudriavzevii): > 195 µM; MIC (Nakaseomyces glabratus): > 195 µM; MIC ([Candida] aaseri): > 195 µM; MIC (Candida parapsilosis): > 195 µM; MIC (Candida albicans [16]): > 195 µM; MIC (Candida albicans [17]): > 195 µM; MIC (Candida albicans [18]): > 195 µM; MIC (Candida albicans [19]): > 195 µM; MIC (Candida albicans [20]): > 195 µM; MFC (Candida albicans [21]): 12.2 µM (≈ 7.82 µg/mL); MIC (Candida albicans [22]): > 195 µM; MFC (Candida albicans [23]): 12.2 µM (≈ 7.82 µg/mL); MIC (Candida albicans [23]): 6.1 µM (≈ 3.91 µg/mL)
